From PubChem BioAssay AID1053157 (Broad Institute, 2014) come the findings set out here.

SMILES strings stand for the structures. pKd: −log10 of the molar value.

Common to all, as to assay: protein binders in hepatoma cell extract, late-stage follow-up, mechanism study for Trib1 inducer project, cell lysate, SILAC, HepG2 extract, LC-MS/MS (AID 1053157)
The target in assay [1] is Ferroptosis suppressor protein 1 (Homo sapiens) (UniProt Q9BRQ8). The conditions noted are these: SILAC chemoproteomic competition binding, Apoptosis-inducing factor.
The target in assay [2] is NADH dehydrogenase [ubiquinone] 1 alpha subcomplex subunit 6 (Homo sapiens) (UniProt P56556). The following applies: SILAC chemoproteomic competition binding.
Chain of NADH dehydrogenase [ubiquinone] 1 alpha subcomplex subunit 6 (Homo sapiens) (P56556 whole entry, looked up, one chain of several): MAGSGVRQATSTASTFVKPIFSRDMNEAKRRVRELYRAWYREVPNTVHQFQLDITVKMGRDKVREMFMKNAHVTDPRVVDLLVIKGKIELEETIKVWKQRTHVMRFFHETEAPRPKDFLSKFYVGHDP
Another assay addresses Prenylcysteine oxidase 1 (UniProt Q9UHG3). The following applies: SILAC chemoproteomic competition binding.
The target in another assay is Protein zwilch homolog (UniProt Q9H900). The following applies: SILAC chemoproteomic competition binding.
Chain of Protein zwilch homolog (Q9H900 whole entry, looked up): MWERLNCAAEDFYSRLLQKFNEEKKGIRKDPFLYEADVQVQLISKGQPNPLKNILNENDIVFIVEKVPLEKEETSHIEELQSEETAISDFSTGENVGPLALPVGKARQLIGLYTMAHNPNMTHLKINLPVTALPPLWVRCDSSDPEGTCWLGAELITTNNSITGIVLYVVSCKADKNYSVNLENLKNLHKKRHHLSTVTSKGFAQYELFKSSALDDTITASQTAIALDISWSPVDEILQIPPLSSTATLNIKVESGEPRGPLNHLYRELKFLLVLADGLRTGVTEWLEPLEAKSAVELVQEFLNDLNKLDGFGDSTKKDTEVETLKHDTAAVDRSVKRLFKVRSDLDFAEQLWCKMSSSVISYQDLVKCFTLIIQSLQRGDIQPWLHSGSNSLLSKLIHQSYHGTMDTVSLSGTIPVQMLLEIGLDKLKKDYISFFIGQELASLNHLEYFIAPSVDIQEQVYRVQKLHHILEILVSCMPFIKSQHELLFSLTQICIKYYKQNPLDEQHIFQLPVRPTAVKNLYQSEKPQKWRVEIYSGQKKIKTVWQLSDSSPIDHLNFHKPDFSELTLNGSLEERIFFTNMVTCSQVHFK
The next assay addresses Ran-binding protein 6 (UniProt O60518). The following applies: SILAC chemoproteomic competition binding.
The target in assay [3] is Ubiquitin carboxyl-terminal hydrolase 34 (UniProt Q70CQ2). The conditions noted are these: SILAC chemoproteomic competition binding.
Chain of Ubiquitin carboxyl-terminal hydrolase 34 (Q70CQ2 whole entry, looked up): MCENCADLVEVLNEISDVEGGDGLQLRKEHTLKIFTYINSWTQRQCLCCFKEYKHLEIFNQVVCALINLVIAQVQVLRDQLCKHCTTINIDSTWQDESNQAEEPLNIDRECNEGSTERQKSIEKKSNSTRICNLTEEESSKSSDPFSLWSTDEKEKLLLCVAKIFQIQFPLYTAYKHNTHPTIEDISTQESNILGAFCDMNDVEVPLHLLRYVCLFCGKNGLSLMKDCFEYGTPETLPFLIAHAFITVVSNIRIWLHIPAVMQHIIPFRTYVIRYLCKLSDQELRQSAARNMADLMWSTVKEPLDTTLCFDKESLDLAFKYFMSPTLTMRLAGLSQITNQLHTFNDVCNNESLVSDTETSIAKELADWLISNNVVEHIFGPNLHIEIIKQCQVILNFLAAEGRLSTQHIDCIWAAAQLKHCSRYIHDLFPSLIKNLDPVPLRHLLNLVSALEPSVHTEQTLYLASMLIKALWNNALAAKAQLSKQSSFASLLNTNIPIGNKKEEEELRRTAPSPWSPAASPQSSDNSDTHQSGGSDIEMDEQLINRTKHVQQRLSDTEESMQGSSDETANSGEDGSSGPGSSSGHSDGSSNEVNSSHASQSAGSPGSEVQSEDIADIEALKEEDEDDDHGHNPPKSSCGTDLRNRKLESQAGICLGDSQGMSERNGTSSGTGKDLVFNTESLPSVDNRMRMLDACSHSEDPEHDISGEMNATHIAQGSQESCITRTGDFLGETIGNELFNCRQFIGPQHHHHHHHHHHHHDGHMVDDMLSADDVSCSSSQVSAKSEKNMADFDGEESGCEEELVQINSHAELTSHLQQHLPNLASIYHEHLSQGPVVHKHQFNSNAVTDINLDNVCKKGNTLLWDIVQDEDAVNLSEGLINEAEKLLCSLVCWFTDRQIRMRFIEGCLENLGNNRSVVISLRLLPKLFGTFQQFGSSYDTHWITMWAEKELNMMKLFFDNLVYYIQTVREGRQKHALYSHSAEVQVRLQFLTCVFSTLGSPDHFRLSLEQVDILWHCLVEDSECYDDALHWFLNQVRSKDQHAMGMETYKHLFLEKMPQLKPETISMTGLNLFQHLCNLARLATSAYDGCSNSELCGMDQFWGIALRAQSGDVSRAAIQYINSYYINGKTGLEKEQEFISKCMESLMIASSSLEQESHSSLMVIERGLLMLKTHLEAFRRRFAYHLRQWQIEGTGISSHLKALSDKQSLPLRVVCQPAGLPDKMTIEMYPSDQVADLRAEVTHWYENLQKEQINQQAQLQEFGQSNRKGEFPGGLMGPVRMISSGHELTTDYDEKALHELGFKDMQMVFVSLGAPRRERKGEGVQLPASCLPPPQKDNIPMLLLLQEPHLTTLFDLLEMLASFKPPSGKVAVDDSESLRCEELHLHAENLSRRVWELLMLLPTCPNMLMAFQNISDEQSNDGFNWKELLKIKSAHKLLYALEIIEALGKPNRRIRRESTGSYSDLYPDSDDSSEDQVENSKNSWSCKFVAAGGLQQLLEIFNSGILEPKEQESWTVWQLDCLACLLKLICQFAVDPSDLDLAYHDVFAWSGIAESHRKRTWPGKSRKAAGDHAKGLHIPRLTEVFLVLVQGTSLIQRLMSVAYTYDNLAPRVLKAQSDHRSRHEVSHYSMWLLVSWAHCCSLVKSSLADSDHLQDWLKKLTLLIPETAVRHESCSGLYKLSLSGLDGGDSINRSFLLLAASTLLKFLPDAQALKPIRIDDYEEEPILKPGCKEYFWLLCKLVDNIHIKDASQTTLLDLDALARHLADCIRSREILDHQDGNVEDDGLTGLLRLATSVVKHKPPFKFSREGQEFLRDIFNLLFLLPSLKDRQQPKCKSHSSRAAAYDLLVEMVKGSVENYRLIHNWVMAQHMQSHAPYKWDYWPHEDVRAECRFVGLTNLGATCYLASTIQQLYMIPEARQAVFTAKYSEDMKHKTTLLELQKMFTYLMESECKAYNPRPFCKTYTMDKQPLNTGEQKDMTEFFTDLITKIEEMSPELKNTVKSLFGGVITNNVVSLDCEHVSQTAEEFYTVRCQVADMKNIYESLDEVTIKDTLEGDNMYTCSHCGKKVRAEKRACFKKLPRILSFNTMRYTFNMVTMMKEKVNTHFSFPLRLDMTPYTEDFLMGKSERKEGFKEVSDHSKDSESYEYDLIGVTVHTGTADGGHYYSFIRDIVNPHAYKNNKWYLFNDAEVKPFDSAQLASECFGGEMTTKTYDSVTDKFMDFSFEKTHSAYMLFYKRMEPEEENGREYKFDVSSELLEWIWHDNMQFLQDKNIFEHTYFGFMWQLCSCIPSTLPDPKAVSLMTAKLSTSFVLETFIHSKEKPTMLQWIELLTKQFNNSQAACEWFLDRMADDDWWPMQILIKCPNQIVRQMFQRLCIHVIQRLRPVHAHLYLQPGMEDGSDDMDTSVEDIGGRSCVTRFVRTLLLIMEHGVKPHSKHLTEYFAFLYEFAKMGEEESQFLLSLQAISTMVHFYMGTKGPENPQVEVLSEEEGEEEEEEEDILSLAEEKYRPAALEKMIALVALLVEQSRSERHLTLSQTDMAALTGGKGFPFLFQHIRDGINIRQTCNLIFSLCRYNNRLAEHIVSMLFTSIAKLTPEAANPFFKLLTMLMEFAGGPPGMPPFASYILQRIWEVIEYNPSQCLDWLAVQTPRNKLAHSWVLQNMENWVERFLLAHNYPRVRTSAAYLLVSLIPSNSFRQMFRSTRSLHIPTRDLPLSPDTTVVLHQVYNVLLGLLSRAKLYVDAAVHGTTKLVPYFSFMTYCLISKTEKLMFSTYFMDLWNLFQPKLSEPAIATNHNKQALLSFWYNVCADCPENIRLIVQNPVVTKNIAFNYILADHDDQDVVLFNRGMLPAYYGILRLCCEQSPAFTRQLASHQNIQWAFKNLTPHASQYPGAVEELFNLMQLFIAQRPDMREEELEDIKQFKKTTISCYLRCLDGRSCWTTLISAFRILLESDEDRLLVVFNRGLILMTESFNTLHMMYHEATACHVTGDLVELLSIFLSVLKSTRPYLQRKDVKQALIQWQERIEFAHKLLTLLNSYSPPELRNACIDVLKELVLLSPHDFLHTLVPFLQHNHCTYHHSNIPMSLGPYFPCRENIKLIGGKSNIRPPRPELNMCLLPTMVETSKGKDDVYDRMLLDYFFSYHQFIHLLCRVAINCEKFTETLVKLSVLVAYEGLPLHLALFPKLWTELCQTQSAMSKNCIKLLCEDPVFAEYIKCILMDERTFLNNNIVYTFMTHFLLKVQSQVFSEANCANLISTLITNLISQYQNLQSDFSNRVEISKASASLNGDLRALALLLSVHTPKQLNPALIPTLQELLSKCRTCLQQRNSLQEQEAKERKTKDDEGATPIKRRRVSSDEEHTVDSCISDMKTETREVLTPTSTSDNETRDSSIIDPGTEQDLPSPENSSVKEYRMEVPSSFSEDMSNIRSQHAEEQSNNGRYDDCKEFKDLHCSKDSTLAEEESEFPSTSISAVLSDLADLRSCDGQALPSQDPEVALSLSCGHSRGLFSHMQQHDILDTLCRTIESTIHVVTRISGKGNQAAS

Chain of Prenylcysteine oxidase 1 (Q9UHG3 whole entry, looked up): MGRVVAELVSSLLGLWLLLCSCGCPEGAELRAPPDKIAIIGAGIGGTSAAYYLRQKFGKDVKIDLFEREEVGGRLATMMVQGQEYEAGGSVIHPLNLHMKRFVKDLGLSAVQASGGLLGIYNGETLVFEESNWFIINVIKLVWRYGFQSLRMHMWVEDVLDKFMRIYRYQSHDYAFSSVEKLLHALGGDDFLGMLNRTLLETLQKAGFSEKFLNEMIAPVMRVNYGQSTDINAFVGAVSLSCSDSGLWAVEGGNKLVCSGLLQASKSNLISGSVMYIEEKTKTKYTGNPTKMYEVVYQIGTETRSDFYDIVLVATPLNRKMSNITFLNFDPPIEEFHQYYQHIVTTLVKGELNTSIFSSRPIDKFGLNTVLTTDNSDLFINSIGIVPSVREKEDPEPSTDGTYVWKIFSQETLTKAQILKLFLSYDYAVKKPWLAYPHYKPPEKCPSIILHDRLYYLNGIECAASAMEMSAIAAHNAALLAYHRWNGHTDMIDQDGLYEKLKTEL

As for `CN1C(=O)c2cc(NC(=O)c3ccc(C(F)(F)F)cc3)ccc2OC[C@@H]2O[C@H](CC(=O)NC3Cc4ccccc4C3)CC[C@@H]21`, the pKd in assay [1] was 4.57; in assay [2], 4.53; at Prenylcysteine oxidase 1, 4.99; on Protein zwilch homolog, 4.74; at Ran-binding protein 6, 4.59; in assay [3] it was 4.59.

For orientation: pKd means −log10 of the Kd, conventionally taken in molar units.
